Test results reported in PubChem BioAssay (NCI).
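96-well plates; 48 h exposure; 5 concentrations. Endpoints by linear interpolation between flanking doses. Not reached: highest tested concentration assigned. At the TGI there is no net growth.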

Columns and labels:
Experiment in all cases: NCI anticancer screen, dose series, 48 h
KM12 colon = test system: KM12 colon
SF-268 CNS = test system: SF-268 CNS
SK-MEL-2 melanoma = test system: SK-MEL-2 melanoma
SF-295 CNS = test system: SF-295 CNS
M14 melanoma = test system: M14 melanoma
SF-539 CNS = test system: SF-539 CNS
MDA-MB-435 = test system: MDA-MB-435
SN12C renal = test system: SN12C renal
CCRF-CEM leukemia = test system: CCRF-CEM leukemia
LOX IMVI melanoma = test system: LOX IMVI melanoma
BT-549 breast = test system: BT-549 breast
SK-MEL-5 melanoma = test system: SK-MEL-5 melanoma
UO-31 renal = test system: UO-31 renal
UACC-257 melanoma = test system: UACC-257 melanoma
IGROV1 ovarian = test system: IGROV1 ovarian
OVCAR-5 ovarian = test system: OVCAR-5 ovarian
EKVX NSCLC = test system: EKVX NSCLC
DU-145 prostate = test system: DU-145 prostate
ACHN renal = test system: ACHN renal
NCI-H23 lung = test system: NCI-H23 lung
OVCAR-8 ovarian = test system: OVCAR-8 ovarian
HCT-116 colon = test system: HCT-116 colon
SK-MEL-28 melanoma = test system: SK-MEL-28 melanoma
HL-60(TB) leukemia = test system: HL-60(TB) leukemia
SNB-19 CNS = test system: SNB-19 CNS
MDA-N = test system: MDA-N
OVCAR-3 ovarian = test system: OVCAR-3 ovarian
HCC-2998 colon = test system: HCC-2998 colon
OVCAR-4 ovarian = test system: OVCAR-4 ovarian
SNB-75 CNS = test system: SNB-75 CNS
HOP-92 NSCLC = test system: HOP-92 NSCLC
UACC-62 melanoma = test system: UACC-62 melanoma
COLO 205 colon = test system: COLO 205 colon
A549 NSCLC = test system: A549 NSCLC
NCI/ADR-RES ovarian = test system: NCI/ADR-RES ovarian
PC-3 prostate = test system: PC-3 prostate
NCI-H460 lung = test system: NCI-H460 lung
786-0 renal = test system: 786-0 renal
SK-OV-3 ovarian = test system: SK-OV-3 ovarian
TK-10 renal = test system: TK-10 renal
RXF 393 renal = test system: RXF 393 renal
CAKI-1 renal = test system: CAKI-1 renal
NCI-H522 lung = test system: NCI-H522 lung
U251 CNS = test system: U251 CNS
HOP-62 NSCLC = test system: HOP-62 NSCLC
HT29 colon = test system: HT29 colon
MOLT-4 leukemia = test system: MOLT-4 leukemia
MCF7 breast = test system: MCF7 breast
SW-620 colon = test system: SW-620 colon
NCI-H226 lung = test system: NCI-H226 lung
HS 578T breast = test system: HS 578T breast
MDA-MB-231 breast = test system: MDA-MB-231 breast
HCT-15 colon = test system: HCT-15 colon
A498 renal = test system: A498 renal
T-47D breast = test system: T-47D breast
MALME-3M melanoma = test system: MALME-3M melanoma

## CC(=O)NC1=NC(=O)/C(=C/c2ccccc2Cl)N1C
KM12 colon
  TGI: > 100000 nM
SF-268 CNS
  TGI: > 100 µM
SK-MEL-2 melanoma
  TGI: > 100 µM
SF-295 CNS
  TGI: > 100 µM
M14 melanoma
  TGI: > 100000 nM
SF-539 CNS
  TGI: > 100 µM
MDA-MB-435
  TGI: > 100 µM
SN12C renal
  TGI: > 100 µM
CCRF-CEM leukemia
  TGI: > 100 µM
LOX IMVI melanoma
  TGI: > 100 µM
BT-549 breast
  TGI: > 100 µM
SK-MEL-5 melanoma
  TGI: > 100 µM
UO-31 renal
  TGI: > 100 µM
UACC-257 melanoma
  TGI: > 100 µM
IGROV1 ovarian
  TGI: > 100 µM
OVCAR-5 ovarian
  TGI: > 100 µM
EKVX NSCLC
  TGI: > 100 µM
DU-145 prostate
  TGI: > 100000 nM
ACHN renal
  TGI: > 100 µM
NCI-H23 lung
  TGI: > 100 µM
OVCAR-8 ovarian
  TGI: > 100 µM
HCT-116 colon
  TGI: > 100 µM
SK-MEL-28 melanoma
  TGI: > 100 µM
HL-60(TB) leukemia
  TGI: > 100 µM
SNB-19 CNS
  TGI: > 100 µM
MDA-N
  TGI: > 100 µM
OVCAR-3 ovarian
  TGI: > 100 µM
HCC-2998 colon
  TGI: > 100000 nM
OVCAR-4 ovarian
  TGI: > 100 µM
SNB-75 CNS
  TGI: > 100000 nM
HOP-92 NSCLC
  TGI: > 100 µM
UACC-62 melanoma
  TGI: > 100 µM
COLO 205 colon
  TGI: > 100000 nM
A549 NSCLC
  TGI: > 100 µM
NCI/ADR-RES ovarian
  TGI: > 100 µM
PC-3 prostate
  TGI: > 100 µM
NCI-H460 lung
  TGI: > 100 µM
786-0 renal
  TGI: > 100 µM
SK-OV-3 ovarian
  TGI: > 100 µM
TK-10 renal
  TGI: > 100 µM
RXF 393 renal
  TGI: > 100 µM
CAKI-1 renal
  TGI: > 100 µM
NCI-H522 lung
  TGI: > 100 µM
U251 CNS
  TGI: > 100 µM
HOP-62 NSCLC
  TGI: > 100 µM
HT29 colon
  TGI: > 100 µM
MOLT-4 leukemia
  TGI: > 100 µM
MCF7 breast
  TGI: > 100000 nM
SW-620 colon
  TGI: > 100 µM
NCI-H226 lung
  TGI: > 100 µM
HS 578T breast
  TGI: > 100 µM
MDA-MB-231 breast
  TGI: > 100 µM
HCT-15 colon
  TGI: > 100000 nM

## COc1cc(OCCN(C)C)c2[nH]c(C(=O)N3CC(CCl)c4c3cc(N)c3ccccc43)cc2c1 (centres undefined)
SK-MEL-2 melanoma
  TGI: < 0.01 µM
SF-295 CNS
  TGI: 0.017 µM
M14 melanoma
  TGI: < 10 nM
A498 renal
  TGI: < 0.01 µM
CCRF-CEM leukemia
  TGI: > 100 µM
LOX IMVI melanoma
  TGI: < 0.01 µM
BT-549 breast
  TGI: 0.379 µM
OVCAR-5 ovarian
  TGI: 0.213 µM
EKVX NSCLC
  TGI: 0.0521 µM
DU-145 prostate
  TGI: 1080 nM
NCI-H23 lung
  TGI: < 0.01 µM
MDA-N
  TGI: < 0.01 µM
OVCAR-3 ovarian
  TGI: < 0.01 µM
HCC-2998 colon
  TGI: < 10 nM
T-47D breast
  TGI: 1790 nM
SNB-75 CNS
  TGI: 20 nM
HOP-92 NSCLC
  TGI: < 0.01 µM
UACC-62 melanoma
  TGI: < 0.01 µM
COLO 205 colon
  TGI: 10.2 nM
NCI/ADR-RES ovarian
  TGI: 0.0498 µM
PC-3 prostate
  TGI: 0.736 µM
786-0 renal
  TGI: < 0.01 µM
SK-OV-3 ovarian
  TGI: 1.32 µM
RXF 393 renal
  TGI: < 0.01 µM
NCI-H522 lung
  TGI: < 0.01 µM
HOP-62 NSCLC
  TGI: < 0.01 µM
MCF7 breast
  TGI: 11 nM
SW-620 colon
  TGI: 0.265 µM
NCI-H226 lung
  TGI: 0.0311 µM
MDA-MB-231 breast
  TGI: 1.17 µM
HCT-15 colon
  TGI: 1320 nM

## CN(CCNC(=O)c1cn(C)c2c1ccc1ccccc12)CCNC(=O)c1cn(C)c2c1ccc1ccccc12
KM12 colon
  TGI: 2980 nM
SF-268 CNS
  TGI: > 21.3 µM
SK-MEL-2 melanoma
  TGI: 4.6 µM
SF-295 CNS
  TGI: > 22.2 µM
M14 melanoma
  TGI: 2970 nM
A498 renal
  TGI: > 34.5 µM
SN12C renal
  TGI: 10.6 µM
CCRF-CEM leukemia
  TGI: > 100 µM
LOX IMVI melanoma
  TGI: > 100 µM
BT-549 breast
  TGI: 6.87 µM
SK-MEL-5 melanoma
  TGI: > 100 µM
UO-31 renal
  TGI: 4.68 µM
UACC-257 melanoma
  TGI: 6.62 µM
IGROV1 ovarian
  TGI: 4.65 µM
OVCAR-5 ovarian
  TGI: 3.52 µM
EKVX NSCLC
  TGI: 6.93 µM
ACHN renal
  TGI: > 100 µM
MALME-3M melanoma
  TGI: 5.13 µM
NCI-H23 lung
  TGI: > 100 µM
OVCAR-8 ovarian
  TGI: > 100 µM
SNB-19 CNS
  TGI: > 100 µM
MDA-N
  TGI: 4.25 µM
OVCAR-3 ovarian
  TGI: 11.4 µM
HCC-2998 colon
  TGI: 1490 nM
OVCAR-4 ovarian
  TGI: 16.2 µM
HOP-92 NSCLC
  TGI: 5.26 µM
UACC-62 melanoma
  TGI: 12.7 µM
A549 NSCLC
  TGI: 11.1 µM
NCI/ADR-RES ovarian
  TGI: > 100 µM
PC-3 prostate
  TGI: 7.02 µM
NCI-H460 lung
  TGI: 3.72 µM
SK-OV-3 ovarian
  TGI: 22.3 µM
CAKI-1 renal
  TGI: > 100 µM
U251 CNS
  TGI: 4.58 µM
HOP-62 NSCLC
  TGI: 5.53 µM
HT29 colon
  TGI: > 100 µM
SW-620 colon
  TGI: > 100 µM
NCI-H226 lung
  TGI: > 75.1 µM
HS 578T breast
  TGI: 3.11 µM
MDA-MB-231 breast
  TGI: 3.8 µM
